Activity calls are given as the source filed them. The calls are words filed in the database; no cut-off is given here.
Columns and labels:
SMA-540 = assay: Anti-clonogenicic activity in mouse SMA-540 cells assessed as reduction in colony formation at 0.001 to 10 uM and measured after 10 days by MTT based clonogenic survival assay; format: functional, cell-based; conditions: dose 0.001-10 µM, time 10.0 day
SMA-560 [1] = assay: Induction of cell cycle arrest in mouse SMA-560 cells assessed as accumulation at G2/M phase at 0.1 uM incubated for 72 hrs by propidium iodide/RNase staining based flow cytomtery (Rvb= 25%); format: functional
SMA-497 [2] = assay: Induction of apoptosis in mouse SMA-497 cells assessed as live cells at 0.1 uM incubated for 72 hrs by Annexin V-FITC/PI staining based flow cytometric analysis (reference value: 83.4%); format: functional
SMA-560 [3] = assay: Induction of apoptosis in mouse SMA-560 cells assessed as necrotic cells at 0.1 uM incubated for 72 hrs by Annexin V-FITC/PI staining based flow cytometric analysis (reference value: 13.5%); format: functional
SMA-560 [4] = assay: Antitumor activity against mouse SMA-560 cells xenografted in VM/Dk mouse assessed as decrease in number of CD31-positive intra-tumoral vessels in tumor at 100 mg/kg,po daily by immunohistochemistry analysis; format: functional, organism-based
GL261 [5] = assay: Antitumor activity against mouse GL261 cells xenografted in C57Bl/6 mouse assessed as decrease in number of CD31-positive intra-tumoral vessels in tumor at 100 mg/kg,po daily by immunohistochemistry analysis; format: functional, organism-based
SMA-497 [6] = assay: Antitumor activity against mouse SMA-497 cells xenografted in VM/Dk mouse assessed as increase in number of tumor-infiltrating CD11b positive monocytes/microglia in tumor at 100 mg/kg,po daily by immunohistochemistry analysis; format: functional, organism-based
GL261 [7] = assay: Antitumor activity against mouse GL261 cells xenografted in C57Bl/6 mouse assessed as tumor cell proliferation at 100 mg/kg,po daily by Ki67 staining based immunohistochemistry analysis; format: functional, organism-based
SMA-560 [8] = assay: Antitumor activity against mouse SMA-560 cells xenografted in VM/Dk mouse assessed as tumor cell proliferation at 100 mg/kg,po daily by Ki67 staining based immunohistochemistry analysis; format: functional, organism-based
SMA-560 [9] = assay: Antitumor activity against mouse SMA-560 cells xenografted in VM/Dk mouse assessed as decrease in tumor volume at 100 mg/kg,po daily by H and E staining based microscopy; format: functional, organism-based
[10] = Toxicity in VM/Dk mouse xenografted with mouse SMA-560 cells assessed as survival rate at 100 mg/kg,po daily (Rvb=13 to 20%); format: organism-based; conditions: in vivo
SMA-497 [11] = assay: Antitumor activity against mouse SMA-497 cells xenografted in VM/Dk mouse assessed as increase in number of tumor-infiltrating CD11b positive monocytes/microglia in tumor at 100 mg/kg,po daily with 12 Gy irradition after 2days of treatment initiation by immunohistochemistry analysis; format: functional, organism-based
SMA-560 [12] = assay: Antitumor activity against mouse SMA-560 cells xenografted in VM/Dk mouse assessed as increase in number of tumor-infiltrating CD11b positive monocytes/microglia in tumor at 100 mg/kg,po daily with 12 Gy irradition after 2days of treatment initiation by immunohistochemistry analysis; format: functional, organism-based
SMA-560 [13] = assay: Antitumor activity against mouse SMA-560 cells xenografted in VM/Dk mouse assessed as decrease in tumor cell proliferation at 100 mg/kg,po daily with 12 Gy irradition after 2days of treatment initiation by Ki67 staining based immunohistochemistry analysis; format: functional, organism-based
SMA-560 [14] = assay: Antitumor activity against mouse SMA-560 cells xenografted in VM/Dk mouse assessed as decrease in tumor volume at 100 mg/kg,po daily with 12 Gy irradition after 2days of treatment initiation by H and E staining based microscopy; format: functional, organism-based

Cc1cc(C)c(-n2ccn3nc(-c4cccnc4)cc23)cc1NC(=O)c1cc(C#N)cc(S(F)(F)(F)(F)F)c1 [BAY-826]
Activity (SMA-540): inactive
Activity (SMA-560 [1]): 28%
Activity (SMA-497 [2]): 91.4%
Activity (SMA-560 [3]): 8.81%
Activity (SMA-560 [4]): Active
Activity (GL261 [5]): Active
Activity (SMA-497 [6]): Active
Activity (GL261 [7]): inactive
Activity (SMA-560 [8]): inactive
Activity (SMA-560 [9]): inactive
Survival [10]: 15%
Activity (SMA-497 [11]): Active
Activity (SMA-560 [12]): Active
Activity (SMA-560 [13]): inactive
Activity (SMA-560 [14]): Active

From ChEMBL document CHEMBL5653627 (J Neurochem, 2017)
